Experimental data taken from ChEMBL document CHEMBL4033648, “Eco-friendly synthesis of novel cyanopyridine derivatives and their anticancer and PIM-1 kinase inhibitory activities” (Eur J Med Chem, 2017).

Legend:
[1] = tested on: HCT-116; test: Cytotoxicity against human HCT116 cells; type: functional, cell-based
[2] = tested on: MCF7; test: Cytotoxicity against human MCF7 cells; type: functional, cell-based
[3] = tested on: HepG2; test: Cytotoxicity against human HepG2 cells; type: functional, cell-based
[4] = target: Serine/threonine-protein kinase pim-1 (Homo sapiens, UniProt P11309); test: Inhibition of human PIM1 measured after 5 mins by ELISA relative to control
[5] = tested on: HepG2; test: Induction of apoptosis in human HepG2 cells assessed as upregulation of caspase 3 level measured up to 30 mins by immunoassay relative to control; type: functional
[6] = tested on: HepG2; test: Induction of apoptosis in human HepG2 cells assessed as increase in Bax/Bcl2 ratio by qRT-PCR analysis relative to control; type: functional
[7] = tested on: HepG2; test: Induction of apoptosis in human HepG2 cells assessed as increase in Bax level by qRT-PCR analysis relative to control; type: functional
[8] = tested on: HepG2; test: Induction of apoptosis in human HepG2 cells assessed as decrease in Bcl2 level by qRT-PCR analysis relative to control; type: functional

Compound | IC50 [1] | IC50 [2] | IC50 [3] | IC50 [4] | inhibition [4] | fold change (FC) [5] | fold change (FC) [6] | fold change (FC) [7] | fold change (FC) [8]
N#Cc1c(-c2cccc3ccccc23)cc(-c2cc3c(ccc4ccccc43)oc2=O)[nH]c1=O | 25.9 µM | 25.2 µM | 15.3 µM | 1.47 µM | 79.5% | – | – | – | –
N#Cc1c(-c2cccc3ccccc23)cc(-c2ccc3ccccc3c2)nc1N | 20.5 µM | 19.2 µM | 11.9 µM | 1.16 µM | 86.5% | – | – | – | –
COc1ccc(-c2cc(-c3cc4c(ccc5ccccc54)oc3=O)[nH]c(=O)c2C#N)cc1 | 24.9 µM | 36.7 µM | 36.3 µM | 10.6 µM | 83.1% | – | – | – | –
COc1ccc(-c2cc(-c3cc4c(ccc5ccccc54)oc3=O)nc(N)c2C#N)cc1 | – | – | 300 µM | – | 26% | – | – | – | –
N#Cc1c(-c2cccs2)cc(-c2cc3c(ccc4ccccc43)oc2=O)[nH]c1=O | 36.2 µM | 20.6 µM | 30.5 µM | 0.94 µM | 89% | 5.6 | 22704 | 585 | 38.7
N#Cc1c(-c2cccc3ccccc23)cc(-c2ccc3ccccc3c2)[nH]c1=O | 228 µM | 236 µM | 220 µM | 10 µM | 81% | – | – | – | –
N#Cc1c(-c2cccc3ccccc23)cc(-c2cc3c(ccc4ccccc43)oc2=O)nc1N | 30.6 µM | 80.7 µM | 45.8 µM | 25.5 µM | 61.5% | – | – | – | –
N#Cc1c(-c2cccs2)cc(-c2cc3c(ccc4ccccc43)oc2=O)nc1N | 80 µM | 59.1 µM | 35.7 µM | 19.3 µM | 69.2% | – | – | – | –
COc1cc2c(c(OC)c1OC)-c1ccc(OC)c(=O)cc1[C@@H](NC(C)=O)CC2 [COLCHICINE] | – | – | – | 4.3 µM | 65.1% | – | – | – | –
N#Cc1c(-c2cccs2)cc(-c2cccs2)nc1O | 187 µM | 249 µM | 41.6 µM | 3.16 µM | 84.8% | – | – | – | –
COc1ccc(-c2cc(-c3cccs3)[nH]c(=O)c2C#N)cc1 | 28.7 µM | 21.9 µM | 15.5 µM | 6.7 µM | 73% | – | – | – | –
N#Cc1c(-c2cccc3ccccc23)cc(-c2cccs2)[nH]c1=O | 28.6 µM | 27.1 µM | 35.9 µM | 4.8 µM | 77.8% | – | – | – | –
N#Cc1c(-c2cccs2)cc(-c2cccs2)nc1N | 91.2 µM | 72.1 µM | 28.3 µM | 7.52 µM | 85% | – | – | – | –
COc1ccc(-c2cc(-c3cccs3)nc(N)c2C#N)cc1 | 122 µM | 88.3 µM | 104 µM | – | 76.9% | – | – | – | –
O=c1[nH]cc(F)c(=O)[nH]1 [FLUOROURACIL] | – | 7.9 µM | 8.1 µM | – | – | – | – | – | –
N#Cc1c(-c2cccc3ccccc23)cc(-c2cccs2)nc1N | 66.7 µM | 38.8 µM | 181 µM | – | 58.5% | – | – | – | –
